Columns and labels:
Type in all cases: cell-based, human
RKO cells [1] = experiment: Intracellular pH evaluation (BCECF-AM, flow cytometry), RKO; settings: 2 × IC50 and 4 × IC50, 48 h
Protocol: (§1) Evaluations of the intracellular pHs (pHi) of the RKO and MCF7 cells were performed through a flow cytometry optimized protocol using the pH-sensitive probe BCECF-AM. RKO and MCF7 cells were seeded in 12-well plates at a density of 1 × 10^5 cells/mL. After 24 h, the cells were treated with the compounds C9, A36, and A42 at 2 × IC50 and 4 × IC50 concentrations or 0.1% DMSO (vehicle). As a control, untreated cells were used. Attached and floating cells were collected, washed, and then resuspended in Hank’s balanced salt solution (HBSS) after a 48 h treatment period. After that, the cells were stained with 1 μM of BCECF-AM for 30 min at 37 °C. The samples were analyzed by flow cytometry. The FITC-A and PE-A channels were used to detect the fluorescence mean of BCECF-AM.
(§2) To further support LMP’s role in cell death induction, we investigated the effects of the compounds on intracellular pH (pHi), as LMP induction is associated with an increase in cytosolic proton levels and, as a result, a reduction in intracellular pH [67, 68, 69]. We used the dual-emission ratiometric pH-sensitive probe BCECF-AM, which emits fluorescence based on pHi. The result of acidification was shown by a decrease in the fluorescence ratio between BCECF-AM green (FITC-FL1) and red fluorescence (PE-FL2) (FL1/FL2). […]

MCF7 cells [2] = experiment: ROS levels (DHE, flow cytometry), MCF7; settings: MCF7, 2 × IC50 and 4 × IC50, 48 h
Protocol: The RKO and MCF7 ROS levels were evaluated through flow cytometry using the dihydroethidium (DHE) probe. RKO and MCF7 cells were seeded in 12-well plates at a density of 1 × 10^5 cells/mL. After 24 h, the cells were treated with the compounds C9, A36, and A42 at 2 × IC50 and 4 × IC50 concentrations or 0.1% DMSO (vehicle). As a control, untreated cells were used. The cells were collected after 48 h of treatment, washed with PBS 1×, and stained for 30 min at 37 °C in the dark using 0.5 μM DHE. The DHE mean fluorescence intensity was analyzed by flow cytometry using the PE-A channel.
Since ROS generation is reported to precede LMP and cell death, and in view of reports showing that some compounds of this family increase intracellular ROS levels under certain circumstances, we also investigated whether C9, A36, and A42 had any effects in this regard.

MCF7 cells [3] = experiment: Intracellular pH evaluation (BCECF-AM, flow cytometry), MCF7; settings: MCF7, 2 × IC50 and 4 × IC50, 48 h
Protocol: as §1, §2

RKO cells [4] = experiment: Lysosomal membrane permeabilization (acridine orange, flow cytometry), RKO; settings: 4 × IC50, 48 h
Protocol: RKO and MCF7 lysosomal membrane permeabilization (LMP) was evaluated through flow cytometry using the Acridine Orange (A.O) probe. RKO and MCF7 cells were seeded in 12-well plates at a density of 1 × 10^5 cells/mL. After 24 h, the cells were treated with the compounds C9, A36, and A42 at 2 × IC50 and 4 × IC50 concentrations or 0.1% DMSO (vehicle). As a control, untreated cells were employed. Following a 48 h period, the adherent and floating cells were collected and subjected to a 15-min dark incubation period at 37 °C with 1 μM A.O. After that, the samples were examined by flow cytometry using the PC5.5 channel.
Following the information obtained with the lead compound and considering the microscopic observations made with these new compounds, we next investigated whether their toxicity was also associated with lysosome targeting. To this end, we evaluated the induction of lysosomal membrane permeabilization (LMP) by flow cytometry, using acridine orange (AO) as probe. This probe allows for an assessment of permeabilization, as its fluorescence decreases upon the release of lysosomal protons. […] The cells that presented decreased AO fluorescence were considered to have permeabilized lysosomes.

MCF7 cells [5] = experiment: Annexin V/PI assay (flow cytometry), MCF7; settings: MCF7, 2 × IC50 and 4 × IC50, 48 h
Protocol: (§3) RKO and MCF7 cells were seeded in 12-well plates at a density of 1 × 10^5 cells/mL. After 24 h, the cells were treated with C9, A36, and A42 at 2 × IC50 and 4 × IC50 concentrations or 0.1% DMSO (vehicle). Untreated cells were used as controls. After 48 h, floating and adherent cells were collected. The cells were resuspended in […] of binding buffer and treated for 15 min in the dark with 5 μL of Annexin V-FITC (Detection Kit-ab14085) and 5 μL of Propidium Iodide (50 μg/mL). The samples were subjected to flow cytometry analysis, PI fluorescence was detected using the ECD-A channel, and Annexin V fluorescence was detected using the FITC-A channel.
(§4) One of the main goals of clinical oncology is the development of compounds and treatments capable of selectively eliminating cancer cells. In this sense, we next evaluated the capability of the compounds to induce cell death in both cell lines. For this, we performed a flow cytometry analysis using annexin V-FITC and propidium iodide PI double staining. The conjugation of these two probes allowed for the discrimination of viable (negative for both), early apoptotic (annexin + and PI−), late apoptotic (annexin+ and PI+), and necrotic (annexin− and PI+) cells. […] Both flouting and attached cells were harvested and double stained.

MCF7 cells [6] = experiment: Wound healing assay, MCF7; settings: MCF7, IC50 and 2 × IC50, 12 h (controls approximately 12.5%)
Protocol: RKO and MCF7 cells were seeded in 12-well plates at densities of 5 × 10^5 cells/mL and 4.5 × 10^5 cells/mL, respectively. After 24 h, a wound was created by scraping the cell layer using a 1 mm pipette tip. The cells were treated with C9, A36, and A42 at IC50 and 2 × IC50 concentrations or 0.1% DMSO (vehicle). Untreated cells were used as controls. The wound regions were photographed at 0 and 12 h, and migration was assessed using the Image J software. The relative migration was calculated in relation to the untreated controls.

RKO cells [7] = experiment: Annexin V/PI assay (flow cytometry), RKO; settings: 2 × IC50 and 4 × IC50, 48 h
Protocol: as §3, §4

Question: Which “Intracellular acidification (BCECF-AM FL1/FL2 ratio)” value (RKO cells [1]) does the source give for `CCCNc1cc2oc3cc(=NCC)c(C)cc-3nc2c2ccccc12` [C9] here?
Answer: most pronounced effect

Question: And the “ROS levels (fluorescence mean of DHE)” value (MCF7 cells [2])?
Answer: higher intensity

Question: What about the “Intracellular acidification (BCECF-AM FL1/FL2 ratio)” value (MCF7 cells [3]) of the same molecule?
Answer: most pronounced effect

Question: And the “Percentage of cells with LMP (permeabilized lysosomes)” value (RKO cells [4])?
Answer: more than 80%

Question: And the “Cell death induction (Annexin V/PI)” value (MCF7 cells [5])?
Answer: most powerful compounds

Question: And the “Effect on cell migration (wound closure)” value (MCF7 cells [6])?
Answer: more pronounced effect

Question: And the “Cell death induction (Annexin V/PI)” value (RKO cells [7])?
Answer: most powerful compounds

— PMC11352945, “Anticancer Activity of Benzo[a]phenoxazine Compounds Promoting Lysosomal Dysfunction” (Cells, 2024)
